US20100267803A1, “Regulators Of Fat Metabolism As Anti-Cancer Targets” (The Research Foundation of State University Of New York, priority 2008, published 2010)

What was measured:
[1] = system: nonoverexpressing breast cancer cell lines (MCF-7, MDA-MB-453, MDA-MB-468), HMECs, HEK 293FT; test: alamarBlue proliferation of shRNA-transfected ERBB2 non-overexpressing cell lines; assay type: cell-based, human; conditions: MCF-7, MDA-MB-453, MDA-MB-468, HMEC, shRNA transfection
Description: FIG. 1 An RNAi screen targeting genes overexpressed in breast cancer. (a) Three transfection mixes were produced for each shRNA and each was transfected into triplicate wells of BT474 cells. AlamarBlue was used to monitor cell proliferation and viability. […] (b) The genetic and functional linkage of NR1D1 and PBP. Mb refers to map position on chromosome 17. (c) ERBB2-overexpressing (OEX) and ERBB2 non-overexpressing (non-OEX) breast cancer cell lines as well as the (non-OEX) HMEC and HEK 293 cells were transfected and assayed as in (a). […] Genes clustered with ERBB2 are boxed.
To assess the specificity of effect of each shRNA on cell proliferation, those causing the greatest decrease in BT474 cell proliferation were transfected in a variety of cell lines, including ERBB2 overexpressing (BT474, MDA-MB-361) and nonoverexpressing breast cancer cell lines (MCF-7, MDA-MB-453, MDA-MB-468), normal human mammary epithelial cells (HMECs) and a non-breast tumorigenic cell line (HEK 293FT). […] PBP, NRID1 and PFN2 shRNAs clustered with ERBB2.
RNAi screen, transfections and constructs. The flag-RevErba (flag-NR1D1) overexpression construct was a generous gift of M. Lazar. The LSXN-neu* (ERBB2) overexpression construct was a generous gift of L. Petti. shRNA constructs were expressed from the pSHAG-MAGIC 2 (pSM2) vector and derived from a genome-wide shRNA library^31. ShRNAs targeting the firefly (Photinus pyralis) luciferase gene were used as controls. Transfection efficiency was monitored by co-transfection with a modified MSCV-Puro vector expressing green fluorescent protein (GFP). The alamarBlue (Biosource) assay was performed 96 h post-transfection, since BT474 cells have a population doubling time of ˜100 hours. […] For quantification of alamarBlue we used a BioTek HT Synergy plate reader. AlamarBlue values from the RNAi screens on other cell types were also calculated as above and subjected to hierarchical cluster analysis using Cluster 2.11 (M. Eisen Lab).

BT474 cells = test: Counts of GFP co-transfected BT474 cells (cell death / viability); assay type: cell-based, human; conditions: shRNA co-transfected with GFP, counted up to 72 h
Experimental: Results are shown as percentage of control. (**P=0.03). (c) BT474 cells were transfected with luciferase (control), PBP and NR1D1 shRNAs and co-transfected with GFP. Green cells were counted at intervals and expressed as percentage of control. (Error bars are s.d from 3 individual experiments; *P<0.08, **P<0.03, ***P<0.005). (d) BT474 cells were transfected with luciferase (control), PBP or NR shRNAs for 48 h. Immunofluorescence was performed for cleaved Caspase-3 signal; cell nuclei were stained with Hoechst 33243. (e) Cells from […] were counted for cleaved Caspase-3 signal. (Error bars are s.d from 3 individual experiments; ***P<0.0003). (f) BT474 cells were transfected with luciferase (control) PBP, NR1D1 or PBP and NR1D1 shRNAs together and co-transfected with GFP. Transfected cells were counted at 24 h and 72 h and the 72 h-to-24 h ratio for each shRNA was calculated and expressed as % of the control shRNA (luciferase). (Error bars are s.d from 3 individual experiments; **P=0.01, ***P<0.002). (g) Cells from (f) were counted for cleaved Caspase-3 signal. (Error bars are s.d from 3 individual experiments; ***P<0.0001). (h) ERBB2 mRNA levels of BT474 cells transfected with luciferase (control), PBP or NR1D1 shRNAs for 48 h, analyzed by qRT-PCRs. (Error bars are s.d from 3 individual experiments; ***P=0.0001).
FIG. 4 NR1D1 and PBP coordinate fatty acid metabolism in breast cancer cells. (a) BT474, MDA-MB-361, MCF-7 and HMEC cells were stained with Oil-Red O lipid and hematoxylin nuclear stains. (b) Fat stores were quantified by BODIPY 493/503 lipid probe staining (Error bars are s.d from 3 individual experiments). (c) FASN, ACLY, ACACA and FADS2 mRNA levels of BT474 cells treated with luciferase (control), PBP or NR1D1 shRNAs, or with vehicle and 20 μM of GW9662 for 48 h, analyzed by qRT-PCRs. (Error bars are s.d from 3 experiments; ***P<0.001, **P=0.005) (d) BT474 cells were transfected with FASN, ACLY and ACACA shRNAs and co-transfected with GFP. Transfected cells were counted at 24 h and 72 h and the 72h-to-24 h ratio for each shRNA was calculated and expressed as % of the control shRNA (luciferase). (Error bars are s.d from 3 individual experiments; **P<0.01, ***P<0.002). (e) BODIPY images and (f) quantification of BT474 cells transfected with luciferase (control), PBP or NR1D1 shRNAs and co-transfected with DsRed (Error bars are s.d from 3 individual experiments; ***P<0.03). Arrows indicate transfected cells.
FIG. 5. (a) MDH1 and ME1 mRNA levels of BT474 cells treated with luciferase (control), PBP or NR1D1 shRNAs for 48 h, analyzed by qRT-PCRs. (Error bars are s.d from 3 experiments; **P<0.002 (b) BT474 and MCF-7 cells were transfected with luciferase (control) MDH1 and ME1 shRNAs (Error bars are s.d from 3 individual experiments; ***P=0.0003). (c) BT474 cells) assayed for cleaved Caspase-3 signal by immunofluorescence 48 h after transfection; cell nuclei were stained with Hoechst 33243. (d) Quantification of cleaved Caspase-3 signal from cells in (c). (Error bars are s.d from 3 individual experiments; ***P<0.005). (e) Enzymes involved in fatty acid synthesis and storage that are regulated by NR1D1 and PBP and their proposed contribution to energy production necessary for survival of ERBB2-positive breast cancer cells.
Cell viability—apoptosis assays. […] At least 30 fields were imaged per single experiment. […] Immunoblotting. […] PCR reaction was run using standard conditions.

Substance | effect on other cell lines or HMECs [1] | cell death / viability (cell number of transfected cells) (BT474 cells)
NR1D1 shRNA: shRNA, mature sequence GGCATGGTGTTACTGTGTA (shRNA) | without effect on other cell lines or HMECs | time-dependent decrease of cell number
PBP shRNA: shRNA, mature sequence CCGAGTTCCTCTTATCCTA (shRNA) | without effect on other cell lines or HMECs | time-dependent decrease of cell number
